Among the data in US20250282746A1, “HALOGEN-SUBSTITUTED ISOINDOLINE COMPOUND AND USE THEREOF” (CHENGDU FENDI PHARMACEUTICAL CO., LTD., priority 2022, published 2025) are IC50 and inhibition values, retold here.

Test [1] concerns MV-4-11 cells. The experiment in a line: Antiproliferative activity against MV-4-11 cells (CellTiter-Glo, 72 h). The format is cell-based. As to conditions: Homo sapiens, MV4-11; MV-4-11 cells, 72 h; read-out: Antiproliferative activity IC50. The procedure: MV411 cells in the logarithmic growth phase were diluted in a medium (RPMI+10% FBS) and plated at 5,000 cells/well in 96-well whole black plates (WHB) with 50 μL/well. After plating, the plates were incubated in an incubator at 5% CO2 and 37° C. for 24 h before the compounds were added. The compounds were prepared into a 10 mM stock solution in DMSO and diluted in a culture medium to the desired concentrations (a final DMSO concentration of 0.2%). […] The plates were incubated at 5% CO2 and 37° C. for 72 h. After the incubation was complete, the plates were equilibrated at room temperature for 30 min. CellTiter-Glo® Reagent (Promega G7573) was added at 100 μL/well. The plates were shaken for 12 min on a microplate shaker. The luminescence value was measured at room temperature by the GloMax navigator (Promega GM2010).
In general terms: Cellular ATP, detected with luciferase, serves as a proxy for viable cell number.

The target of test [2] is T1, GSPT1 protein (Homo sapiens, UniProt P15170).
T1 construct: The whole cell lysate was prepared using a RIPA lysis buffer; endogenous in cells; host or cells: NB-4 cells
The experiment in a line: Degradation of GSPT1 protein in NB-4 cells (Western blot). Conditions: NB-4 cells, compound 1 μM, 6 h; read-out: GSPT1 degradation. The format is cell-based. How it is done:
150 μL of DMSO and the compounds (1 μM) were added, and the mixture was incubated in an incubator at 5% CO2 and 37° C. for 6 h. The cells were centrifuged, and the culture medium was discarded. PBS was added for washing and then discarded. The whole cell lysate was prepared using a RIPA lysis buffer containing a protease inhibitor cocktail and a phosphatase inhibitor, and incubated on ice for 30 min. The mixture was centrifuged, and the cell debris was discarded. The whole cell lysate supernatant was collected and transferred to a fresh EP tube. Samples were prepared using a loading buffer after a BCA protein assay. The samples were incubated in a metal bath at 100° C. for 10 min.
The samples were electrophoretically separated from proteins on a 4-20% precast gel (SDS-PAGE gel), transferred to a PVDF membrane, blocked with 5% NFDM/TBST for 1 h at room temperature, co-incubated overnight at 4° C. with the primary antibody, and co-incubated for 2 h at room temperature with the secondary antibody on the next day. The signals were detected on the […]™ imaging system.

T1 sequence (P15170 whole entry): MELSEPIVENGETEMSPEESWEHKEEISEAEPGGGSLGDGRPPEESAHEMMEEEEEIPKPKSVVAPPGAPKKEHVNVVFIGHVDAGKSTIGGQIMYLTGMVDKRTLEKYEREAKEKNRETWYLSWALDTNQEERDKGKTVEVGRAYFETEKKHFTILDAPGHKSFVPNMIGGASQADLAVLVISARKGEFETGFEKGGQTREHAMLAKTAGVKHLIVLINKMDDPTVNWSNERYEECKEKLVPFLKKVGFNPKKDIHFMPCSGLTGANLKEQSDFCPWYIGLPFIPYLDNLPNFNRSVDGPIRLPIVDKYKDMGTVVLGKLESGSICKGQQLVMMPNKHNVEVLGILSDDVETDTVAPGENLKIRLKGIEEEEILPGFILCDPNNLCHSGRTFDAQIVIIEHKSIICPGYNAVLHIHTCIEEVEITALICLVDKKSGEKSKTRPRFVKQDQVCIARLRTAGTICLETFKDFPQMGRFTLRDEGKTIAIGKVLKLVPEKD

`N#Cc1ccc2c(c1F)CN(C1CCC(=O)NC1=O)C2=O` (stereo not shown) [FDAB-1]: the half-inhibitory concentration (IC50) (as a rule, the concentration that inhibits the measured activity by half) in test [1] was more than 1000 nM. In test [2], the inhibition at 1 µM is less than 25%.

Regarding `O=C1CCC(N2Cc3c(ccc(CNC(=O)c4ccc(F)cc4)c3F)C2=O)C(=O)N1` (stereo not shown) [FDAB-49], in test [1], the IC50 is more than 1000 nM. Besides, the inhibition at 1 µM in test [2] was less than 25%.

As for `Cc1ccc(C(=O)NCc2ccc3c(c2F)CN(C2CCC(=O)NC2=O)C3=O)c(N)c1` (stereo not shown) [FDAB-111], the IC50 in test [1] was more than 1000 nM. For the same compound, the inhibition at 1 µM in test [2] is less than 25%.

Regarding `O=C1CCC(N2Cc3c(ccc(CNC(=O)c4ccc(Cl)c(O)c4)c3Cl)C2=O)C(=O)N1` (stereo not shown) [FDAB-79], the IC50 in test [1] was 10 to 100 nM. Besides, the inhibition at 1 µM in test [2] is more than 80%.

Take `CC(C)(C)OC(=O)NCc1ccc2c(c1F)CN(C1CCC(=O)NC1=O)C2=O` (stereo not shown) [FDAB-2]: the IC50 in test [1] was more than 1000 nM. Besides, in test [2], the inhibition at 1 µM was less than 25%.

With `O=C1CCC(N2Cc3c(ccc(CNC(=O)c4ccc(Cl)cn4)c3F)C2=O)C(=O)N1` (stereo not shown) [FDAB-62], the IC50 in test [1] is more than 1000 nM. Moreover, the inhibition at 1 µM in test [2] was less than 25%.

As for `C#Cc1ccc(C(=O)NCc2ccc3c(c2F)CN(C2CCC(=O)NC2=O)C3=O)cc1` (stereo not shown) [FDAB-96], the IC50 in test [1] was 1 to 10 nM. Further, in test [2], the inhibition at 1 µM is more than 80%.

In the case of `O=C1CCC(N2Cc3c(ccc(CNC(=O)c4ccc(Cl)c(O)c4)c3F)C2=O)C(=O)N1` (stereo not shown) [FDAB-83], the IC50 in test [1] lay within 10 to 100 nM. The inhibition at 1 µM in test [2] is more than 80%.

For `O=C1CCC(N2Cc3c(ccc(CNC(=O)c4ccc5c(c4)C(=O)CC5)c3F)C2=O)C(=O)N1` (stereo not shown) [FDAB-106], the IC50 in test [1] was 10 to 100 nM. Further, in test [2], the inhibition at 1 µM is more than 80%.

`O=C1CCC(N2Cc3c(ccc(CNC(=O)c4ccc(C(F)(F)F)cc4)c3F)C2=O)C(=O)N1` (stereo not shown) [FDAB-61]: the IC50 in test [1] was in the range of 1 to 10 nM. Further, the inhibition at 1 µM in test [2] was more than 80%.

With `O=C(CCc1cccc2ccccc12)NCc1ccc2c(c1F)CN(C1CCC(=O)NC1=O)C2=O` (stereo not shown) [FDAB-138], the IC50 in test [1] is less than 1 nM. Besides, the inhibition at 1 µM in test [2] was more than 80%.

With `O=C1CCC(N2Cc3c(ccc(CNC(=O)c4ccc(Cl)c(F)c4)c3F)C2=O)C(=O)N1` (stereo not shown) [FDAB-116], the IC50 in test [1] is 1 to 10 nM. The inhibition at 1 µM in test [2] is more than 80%.

Consider `O=C1CCC(N2Cc3cc(CNC(=O)c4ccccc4)c(F)cc3C2=O)C(=O)N1` (stereo not shown) [FDAB-25], for which the IC50 in test [1] is more than 1000 nM. Moreover, the inhibition at 1 µM in test [2] is less than 25%.

Consider `NCc1ccc2c(c1Cl)CN(C1CCC(=O)NC1=O)C2=O` (stereo not shown) [FDAB-12], for which the IC50 in test [1] is more than 1000 nM. Also, in test [2], the inhibition at 1 µM was less than 25%.

Regarding `O=C1CCC(N2Cc3cc(CNC(=O)c4nc5ccccc5[nH]4)c(F)cc3C2=O)C(=O)N1` (stereo not shown) [FDAB-33], in test [1], the concentration for half-maximal inhibition (IC50) was more than 1000 nM. Further, in test [2], the inhibition at 1 µM is less than 25%.

In the case of `N#Cc1cc(C(=O)NCc2cc3c(cc2F)C(=O)N(C2CCC(=O)NC2=O)C3)ccc1Cl` (stereo not shown) [FDAB-54], in test [1], the IC50 was in the range of 10 to 100 nM. For the same compound, in test [2], the inhibition at 1 µM lay within 50 to 80%.

For `O=C1CCC(N2Cc3cc(CNC(=O)c4ccc(Cl)cc4)c(F)cc3C2=O)C(=O)N1` (stereo not shown) [FDAB-23], the IC50 in test [1] was in the range of 10 to 100 nM. Also, the inhibition at 1 µM in test [2] was more than 80%.

With `O=C1CCC(N2Cc3cc(CNC(=O)c4ccc5ccccc5n4)c(F)cc3C2=O)C(=O)N1` (stereo not shown) [FDAB-60], the IC50 in test [1] lay within 10 to 100 nM. The inhibition at 1 µM in test [2] is more than 80%.

For the compound `CC(C)(C)Oc1ccc(C(=O)NCc2ccc3c(c2F)CN(C2CCC(=O)NC2=O)C3=O)cc1` (stereo not shown) [FDAB-103], the IC50 in test [1] is less than 1 nM. Also, the inhibition at 1 µM in test [2] was more than 80%.

For `NCc1cc2c(cc1Cl)C(=O)N(C1CCC(=O)NC1=O)C2` (stereo not shown) [FDAB-15], the IC50 in test [1] was more than 1000 nM. For the same compound, the inhibition at 1 µM in test [2] was less than 25%.

As for `Nc1ccc(C(=O)NCc2cc3c(cc2F)C(=O)N(C2CCC(=O)NC2=O)C3)cc1` (stereo not shown) [FDAB-27], the IC50 in test [1] was more than 1000 nM. Also, the inhibition at 1 µM in test [2] is less than 25%.

Consider `O=C(CCOc1ccccc1)NCc1ccc2c(c1F)CN(C1CCC(=O)NC1=O)C2=O` (stereo not shown) [FDAB-154], for which the IC50 in test [1] was in the range of 1 to 10 nM. Further, the inhibition at 1 µM in test [2] was more than 80%.

Turning to `CC(C)(C)OC(=O)NCc1cc2c(cc1F)C(=O)N(C1CCC(=O)NC1=O)C2` (stereo not shown) [FDAB-5], the IC50 in test [1] was more than 1000 nM. For the same compound, in test [2], the inhibition at 1 µM was less than 25%.
